From patent publication US5658781A, “Insecticidally effective peptides” (priority 1995, dated 1997)

Assays:
maggot peripheral nerves = assay: Extracellular recording from house fly larval peripheral nerves; format: cell-based, Musca domestica
[1] = system: maggot neuromuscular junction; assay: Neuromuscular junction EPSP recording in house fly larvae; format: cell-based, Musca domestica
[2] = system: beet armyworm (Spodoptera exigua); assay: Toxin injection PD50 in BAW larvae; format: in vivo
[3] = system: tobacco budworm (Heliothis virescens); assay: Injection paralysis assay in tobacco budworm larvae; format: in vivo
[4] = system: cabbage looper (Trichoplusia ni); assay: Toxin injection PD50 in CL larvae; format: in vivo
mice = format: in vivo; conditions: i.p., approximate dose 0.9 mg/kg
Method: Whole venom, 5 μl, obtained from D. canities as described herein was fatal to mice by intraperitoneal injection (i.p.) in three separate tests. Treated mice were initially indistinguishable from saline controls. About 10 to 15 minutes after injection, treated mice became moderately hyperactive, displaying a characteristic hopping gait; this was followed by a short period of uncoordination, labored breathing and convulsions. Death followed within 2 minutes of the initial onset of symptoms.
Residue 9.2 was injected into the intracerebral ventricles in four mice (approx. 28 gm) at a dose of approximately 30 μg per animal (approximately 1 mg/kg).
To characterize the vertebrate toxicity of this venom, pooled reversed-phase fractions of whole venom were tested in mice (FIG. 1). Fraction 2 comprised the components with tobacco budworm (TBW) activity.

Compound | effect on DK 9.2-induced increase in nerve discharge (maggot peripheral nerves) | effect on sensitivity to subsequent treatment with 100 nM DK 9.2 [1] | effect on the EPSP [1] | PD50 [2] [nmol/gm] | PD50 ([3]; TBW larvae, injection, probit analysis) [nmol/gm] | insects exhibiting paralysis after 24 hours ([3]; TBW, 5.0 WVE/g, 24 hours) [%] | insects exhibiting paralysis after 48 hours ([3]; TBW, 5.0 WVE/g, 48 hours) [%] | PD50 [4] [nmol/gm] | effects in mice within 24 hours (mice)
NC1=N[C@H](O)[C@H]2[C@H]3O[C@]4(O)O[C@@H]([C@@H](O)[C@@]2(N1)[C@@H]4O)[C@]3(O)CO [TTX, tetrodotoxin] | rapidly blocked | rendered the preparation insensitive | rapidly blocked |  |  |  |  |  | 
DK 11: Insecticidal peptide isolated from Diguetia canities venom, SEQ ID NO:3, about 6700 or 6740 daltons (AKDGDVKGPAGCMKYKSGDCRGKTCCDQQ) |  |  |  | < 1.5 | 0.71 | 80 | 60 | 0.86 | no effects seen
